Consider 25 molecules from ChEMBL document CHEMBL4619734, “Molecule Property Analyses of Active Compounds for Mycobacterium tuberculosis” (J Med Chem, 2020).

≈ marks a conversion by molar mass, not a printed value. A value given as a limit tells only on which side of the number the result lay.

Test [1] deals with Mycobacterium tuberculosis. In words: Antimycobacterial activity against Mycobacterium tuberculosis. In kind it is functional.
The subject of test [2] is Mycobacterium tuberculosis. In words: Antimycobacterial activity against Mycobacterium tuberculosis H37Rv. The format is functional.
Test [3] concerns Mycobacterium tuberculosis. In words: Antimycobacterial activity against Mycobacterium tuberculosis H37Rv ATCC 27294 assessed as reduction in mycolic acids synthesis after 8 hrs in presence of [1, 2-14C]-acetate by TLC analysis. In kind it is functional. The note with it: H37Rv ATCC 27294, 8 h.
The next test addresses T1, Leucine--tRNA ligase (Mycobacterium tuberculosis (strain ATCC 25618 / H37Rv), UniProt P9WFV1).
T1 sequence (P9WFV1 whole entry): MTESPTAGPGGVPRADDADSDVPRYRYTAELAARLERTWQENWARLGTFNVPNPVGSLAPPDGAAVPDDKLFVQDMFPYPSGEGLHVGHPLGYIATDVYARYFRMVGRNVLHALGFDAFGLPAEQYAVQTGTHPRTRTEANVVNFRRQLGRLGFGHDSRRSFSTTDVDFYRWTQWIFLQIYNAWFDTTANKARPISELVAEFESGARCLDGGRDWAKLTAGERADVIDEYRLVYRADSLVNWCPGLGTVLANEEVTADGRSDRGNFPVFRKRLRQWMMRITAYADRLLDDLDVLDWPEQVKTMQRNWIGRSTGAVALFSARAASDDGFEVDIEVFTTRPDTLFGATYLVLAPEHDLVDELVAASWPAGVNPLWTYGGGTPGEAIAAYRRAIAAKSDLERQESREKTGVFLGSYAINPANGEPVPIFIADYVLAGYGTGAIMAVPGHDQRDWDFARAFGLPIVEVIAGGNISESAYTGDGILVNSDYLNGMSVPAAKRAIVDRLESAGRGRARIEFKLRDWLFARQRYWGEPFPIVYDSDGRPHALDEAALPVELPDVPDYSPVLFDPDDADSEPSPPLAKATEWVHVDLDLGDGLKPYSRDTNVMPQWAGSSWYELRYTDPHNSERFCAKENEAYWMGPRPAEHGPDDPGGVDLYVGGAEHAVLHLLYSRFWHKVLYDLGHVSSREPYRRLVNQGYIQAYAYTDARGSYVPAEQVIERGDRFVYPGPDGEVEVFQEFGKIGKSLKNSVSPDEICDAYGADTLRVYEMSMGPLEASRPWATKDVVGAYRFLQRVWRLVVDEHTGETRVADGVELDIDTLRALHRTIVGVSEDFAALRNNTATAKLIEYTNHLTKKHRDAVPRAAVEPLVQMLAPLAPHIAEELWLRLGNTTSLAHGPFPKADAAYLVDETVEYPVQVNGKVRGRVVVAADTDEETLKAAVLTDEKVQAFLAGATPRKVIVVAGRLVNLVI
Put plainly: Inhibition of Mycobacterium tuberculosis LeuRS expressed in Escherichia coli Rosetta (DE3) cells.

Test [4] is described as follows: Inhibition of human cytoplasmic LeuRS.
Test [5] concerns Mycobacterium tuberculosis. In words: Antimycobacterial activity against Mycobacterium tuberculosis H37Rv expressing LeuRS. The format is functional.
Test [6] has as its system Mycobacterium tuberculosis. Put plainly: Antimycobacterial activity against Mycobacterium tuberculosis H37Ra after 7 to 8 days by MABA assay. The format is functional.
The test system of test [7] is Mycobacterium tuberculosis. Put plainly: Antimycobacterial activity against Mycobacterium tuberculosis expressing Rv1258c efflux pump. In kind it is functional.
For test [8], the system named is Mycobacterium avium. Put plainly: Antimycobacterial activity against Mycobacterium avium 33 expressing MraY. In kind it is functional.
Test [9] concerns Mycobacterium tuberculosis. Put plainly: Antimycobacterial activity against Mycobacterium tuberculosis clinical isolates. The format is functional.
Test [10] has as its system Mycobacterium tuberculosis. Put plainly: Antimycobacterial activity against Mycobacterium tuberculosis expressing WecA. In kind it is functional.
The subject of test [11] is Mycobacterium avium. In words: Antimycobacterial activity against Mycobacterium avium infected in mouse assessed as reduction in mycolic acids synthesis. The format is functional.
The test system of test [12] is Mycolicibacterium smegmatis. In words: Antimycobacterial activity against Mycobacterium smegmatis. In kind it is functional.
Test [13] deals with Mycobacterium tuberculosis. In words: Antimycobacterial activity against Mycobacterium tuberculosis expressing DprE1. The format is functional.

The molecule `c1ccc(-c2c[nH]cn2)cc1` showed an MIC in [1] below 10 µM.
Consider `CCCCS(=O)(=O)Nc1ccc2cnn(C)c2c1`, for which the MIC in test [2] is 0.8 µM (≈ 0.214 µg/mL).
In the case of `COc1ccc(/C(C)=N/NC(N)=S)cc1`, in [3], the MIC is below 0.05 µg/mL.
On to `NC[C@H]1OB(O)c2c(OCCO)ccc(Cl)c21`, for which the IC50 against Leucine--tRNA ligase is 0.216 µM; in [4], 140 µM. This molecule came in with an MIC in test [5] of 0.08 µM (≈ 0.0206 µg/mL).
The molecule `NC(=O)c1sc(N2CCOCC2)cc1OCCc1ccc(OC(F)(F)F)cc1` returned an MIC in test [1] of 0.24 µM.
As for `CCCCCCCCCCNC(CC(=O)OCC)[C@H]1O[C@@H]2OC(C)(C)O[C@@H]2C1OC` (some centres not stated), in test [6], the lowest concentration to inhibit growth (MIC) was 3.12 µg/mL (≈ 7.26 µM).
Turning to `CN[C@H]1[C@@H](O)[C@@H](NC)CC2O[C@@H]3O[C@H](C)C[C@@H](NC(=O)Cc4ccc(O)cn4)[C@]3(O)C[C@@H]21` (some centres not stated), 1.6 µg/mL (≈ 3.55 µM) was the least that counted as inhibitory in test [7] (MIC).
Same read-out and setting: the same measure for `CN[C@H]1[C@@H](O)[C@@H](NC)CC2O[C@@H]3O[C@H](C)C[C@@H](NC(=O)Cc4ccc(Cl)cn4)[C@]3(O)C[C@@H]21` (some centres not stated): 0.8 µg/mL (≈ 1.71 µM).
Regarding `CO[C@H]1[C@@H](O)[C@H](n2ccc(=O)[nH]c2=O)O[C@@H]1[C@@H](O[C@H]1OC(C(=O)NC2CCC[C@@H](C)NC2=O)=C[C@H](O)[C@@H]1O)C(N)=O` (some centres not stated), the MIC with Mycobacterium avium [8] was determined as 1 µg/mL (≈ 1.71 µM).
As for `Cc1ccc(OCCCCCCn2ccnc2)c(C)c1`, inhibition of growth in test [1] (MIC) required 4.8 µg/mL.
As to `CC(=O)NC[C@H]1CN(c2cc(F)c(C3=CCN(C(=O)[C@@H](O)CO)CC3)c(F)c2)C(=O)O1`, the MIC in [9] lay in the range of 0.25 to 1 µg/mL (≈ 0.569 to 2.28 µM).
The molecule `CCCCc1ccc(NC(=O)C2=CCN(C)C(C(O[C@@H]3O[C@H](CN)[C@@H](O)[C@H]3O)[C@H]3OC(n4ccc(=O)[nH]c4=O)[C@H](O)[C@@H]3O)C(=O)N2C)cc1` (some centres not stated) returned an MIC in test [10] of 1.56 µg/mL (≈ 2.27 µM).
As for `Cc1c(C(=O)C2CC2)[n+]([O-])c2cc(Cl)c(Cl)cc2[n+]1[O-]`, in test [1], the lowest concentration to inhibit growth (MIC) was 1.2 µg/mL.
Same read-out and setting: the same measure for `Cc1nn2c(O)cc(-c3ncccn3)nc2c1-c1ccc(Cl)cc1`: 1.1 µg/mL; for `O=[N+]([O-])c1ccc(/C=N/Nc2nc(Nc3ccccc3)nc(N3CCOCC3)n2)o1`: 0.63 µM; for `O=[N+]([O-])c1ccc(/C=N/Nc2nc(Nc3ccccc3)nc(Nc3ccccc3)n2)o1`: 0.078 µM.
In the case of `Cc1ccc(C(=O)Nc2ccc([N+](=O)[O-])cc2)s1`, the MIC in test [1] worked out at 0.5 µg/mL.
`CCCCCCCCc1nc2cc(C)c(C)cc2[nH]1` registered an MIC90 in [1] of 0.75 µM.
Consider `CC(=O)Nc1ccc(/C=N/NC(N)=S)cc1` [AMITHIOZONE], for which the MIC in the test with Mycobacterium avium [11] stood at 0.1 µg/mL (≈ 0.423 µM).
In turn, `COc1nc2ccc(Br)cc2cc1[C@@H](c1ccccc1)[C@@](O)(CCN(C)C)c1cccc2ccccc12` [BEDAQUILINE] had an MIC99 in test [12] of 0.03 µg/mL (≈ 0.054 µM).
Take `C[C@H]1COC2(CCN(c3nc(=O)c4cc(C(F)(F)F)cc([N+](=O)[O-])c4s3)CC2)O1` [BTZ-043]: inhibition of growth in test [13] (MIC) required 0.001 µg/mL (≈ 0.00232 µM).
`C[C@]1(COc2ccc(N3CCC(Oc4ccc(OC(F)(F)F)cc4)CC3)cc2)Cn2cc([N+](=O)[O-])nc2O1` [DELAMANID] showed an MIC in test [1] of 0.012 µg/mL.
Consider `NC(=S)N/N=C/c1cccnc1` [NICOTHIAZONE], for which the MIC in test [3] came to 3.1 µg/mL.
`O=[N+]([O-])c1cn2c(n1)OC[C@@H](OCc1ccc(OC(F)(F)F)cc1)C2` [PRETOMANID] returned an MIC90 in test [1] of 0.039 µg/mL.
For the molecule `CC(=O)NC[C@H]1CN(c2ccc(N3CCSCC3)c(F)c2)C(=O)O1` [SUTEZOLID], the MIC in test [1] was 0.03 to 0.5 µg/mL.
